From patent US11390606B2, “Pyridazinone compounds and uses thereof” (Edgewise Therapeutics, Inc., priority 2018, dated 2022) come the findings set out here.

pIC50: −log10 of the molar value.

The test addresses T1, skeletal myofibrils (Rabbit Psoas), myosin ATPase activity.
T1 construct: Rabbit Psoas Prep 11 (0.25 mg/mL)
Kind of test: Skeletal Myofibril ATPase Assay. Format: biochemical. The following applies: skeletal myofibrils (Rabbit Psoas 0.25 mg/mL), PK/LDH-coupled NADH absorbance at 340 nm. As to the method: Overview: Myosin ATPase activity is assessed by using a coupled reaction system, in which ADP generated by the myosin ATPase function is coupled to the disappearance of NADH through the pyruvate kinase/lactate dehydrogenase (PK-LDH) system. Myosin ATPase activity produces ADP, which is used as a substrate for PK to produce pyruvate and regenerate ATP. The pyruvate is then used as a substrate by LDH to oxidize NADH to NAD+. The rate of the reaction is monitored through the time-dependent disappearance of NADH using absorbance at 340 nm. Inhibition of ATPase activity by the assayed compounds is indicated by a reduced rate of NADH loss, relative to vehicle-treated controls, over the experimental time window. To assess the selectivity of the assayed compounds for skeletal myofibrils, the compounds are counter-screened in cardiac myofibrils.
Materials: The following stock solutions and reagents were used in the Skeletal Myofibril ATPase Assay:
Stock Solutions of pCa buffer. Combine PIPES, CaCl2, and EGTA solutions with 70 mL of water. Adjust pH to 7.0 and bring final volume to 100 mL.
Buffer A & Buffer B. Buffers were stored on ice until use.
Skeletal Myofibril ATPase Assay Procedure: BSA, ATP, NADH, PEP, and DTT solutions were thawed at room temperature, then transferred to ice. Pellet-frozen myofibrils were transferred with approximately twice the required volume into a sufficiently large tube and capped. Myofibrils were thawed by rolling in a water bath for approximately 15 min at room temperature and cooled on ice. Buffers A and B were prepared by adjusting volumes as necessary for required number of wells and stored on ice. 0.5 μL of the compounds to be assayed were added into wells. 25 μL of Buffer A was dispensed into the wells, followed by 25 μL of Buffer B. The wells were measured for absorbance at 340 nm, using a kinetic protocol in which the wells are read every 1.5-2 min for 45 min. The slope of the data was approximated by subtracting the minimum absorbance value from the maximum value for each well. This was accomplished either in the SoftMax Pro software or in a spreadsheet program such as Excel. Using GraphPad Prism 8.0, the data was normalized by assigning a value of 100% to the 1% DMSO vehicle wells. Typically, a normalized 0% value was simply assigned to a (Max−Min) value of 0. The normalized data was fit to a Four Parameter Logistic sigmoidal equation, constraining the bottom to be 0 or greater. Compounds of Table 1 to 4 were tested and results of the assay appear in Table 5 herein. A=IC50 is less than or equal to 10 μM; B=IC50 is greater than 10 μM and less than 100 μM; C=IC50 is greater than 100 μM.

A word on the pIC50: it is −log10 of the IC50, conventionally taken in molar units. A lower pIC50 goes with a high IC50. In the case of `NC(=O)c1ccc(Cn2nc(-c3ccc(OC(F)F)cc3)ccc2=O)cc1` [Compound 116, 4-((3-(4-(difluoromethoxy)phenyl)-6-oxopyridazin-1(6H)-yl)methyl)benzamide], the negative-log IC50 (pIC50) was under 4.00.
The figure for `O=c1ccc(-c2cnc(OCC3COC3)nc2)nn1Cc1ccc(F)cc1F` [Compound 25, 2-(2,4-difluorobenzyl)-6-(2-(oxetan-3-ylmethoxy)pyrimidin-5-yl)pyridazin-3(2H)-one] is over 5.00.
The figure for `O=c1ccc(-c2cnc(N3CCCC3C(F)(F)F)nc2)nn1Cc1ccc(F)cc1F` (centres unmarked) [Compound 30, 2-(2,4-difluorobenzyl)-6-(2-(2-(trifluoromethyl)pyrrolidin-1-yl)pyrimidin-5-yl)pyridazin-3(2H)-one] is over 5.00; for `O=c1ccc(-c2ccc3scnc3c2)nn1Cc1ccc(Cl)cc1` [Compound 117, 6-(benzo[d]thiazol-5-yl)-2-(4-chlorobenzyl)pyridazin-3(2H)-one] it is under 4.00.
In turn, `C[C@H]1Cc2cc(-c3ccc(=O)n(Cc4ccc(Cl)cc4)n3)ccc2O1` [Compound 110, (S)-2-(4-chlorobenzyl)-6-(2-methyl-2,3-dihydrobenzofuran-5-yl)pyridazin-3(2H)-one] gave a pIC50 of over 5.00.
The figure for `O=c1ccc(-c2cnc(N3CC(F)(F)C3)nc2)nn1Cc1ccc(Cl)cc1` [Compound 44, 2-(4-chlorobenzyl)-6-(2-(3,3-difluoroazetidin-1-yl)pyrimidin-5-yl)pyridazin-3(2H)-one] is over 5.00; for `O=c1ccc(-c2cnc(OCC3(F)COC3)nc2)nn1Cc1ccc(F)cc1F` [Compound 24, 2-(2,4-difluorobenzyl)-6-(2-((3-fluorooxetan-3-yl)methoxy)pyrimidin-5-yl)pyridazin-3(2H)-one] it is over 5.00.
`O=c1ccc(-c2ccc(Cl)cc2)nn1Cc1ccc(Cl)cc1` [Compound 303, 2-(4-chlorobenzyl)-6-(4-chlorophenyl)pyridazin-3(2H)-one] gave a negative-log IC50 (pIC50) of over 5.00.
Next, `N#Cc1ccc(Cn2nc(-c3ccc(Br)cc3)ccc2=O)cc1` [Compound 238, 4-((3-(4-bromophenyl)-6-oxopyridazin-1(6H)-yl)methyl)benzonitrile]: 4.00 to 5.00; `CN1CCC(F)(COc2ccc(-c3ccc(=O)n(Cc4ccc(Cl)cc4)n3)cn2)CC1` [Compound 28, 2-(4-chlorobenzyl)-6-(6-((4-fluoro-1-methylpiperidin-4-yl)methoxy)pyridin-3-yl)pyridazin-3(2H)-one]: under 4.00.
Next, `Cc1ccc(-c2ccc(=O)n(Cc3ccc(Cl)cc3)n2)cc1` [Compound 301, 2-(4-chlorobenzyl)-6-(p-tolyl)pyridazin-3(2H)-one]: over 5.00.
The figure for `O=c1ccc(-c2cnc(N3CC(OC(F)F)C3)nc2)nn1Cc1ccc(Cl)cc1` [Compound 9, 2-(4-chlorobenzyl)-6-(2-(3-(difluoromethoxy)azetidin-1-yl)pyrimidin-5-yl)pyridazin-3(2H)-one] is over 5.00; for `O=c1ccc(-c2ccc(C3CC3)cc2)nn1Cc1ccc(Cl)cc1` [Compound 104, 2-(4-chlorobenzyl)-6-(4-cyclopropylphenyl)pyridazin-3(2H)-one] it is over 5.00; for `CN(C)c1ccc(-c2ccc(=O)n(Cc3ccc(Cl)cc3)n2)cn1` [Compound 27, 2-(4-chlorobenzyl)-6-(6-(dimethylamino)pyridin-3-yl)pyridazin-3(2H)-one] it is over 5.00.
In the case of `O=c1ccc(-c2ccc(OCC(F)(F)F)nc2)nn1Cc1ccc(Cl)cc1` [Compound 11, 2-(4-chlorobenzyl)-6-(6-(2,2,2-trifluoroethoxy)pyridin-3-yl)pyridazin-3(2H)-one], the negative logarithm of the IC50 (pIC50) was over 5.00.
Next, `CC1CCC(=O)N1c1ncc(-c2ccc(=O)n(Cc3ccc(Cl)cc3)n2)cn1` (centres unmarked) [Compound 47, 2-(4-chlorobenzyl)-6-(2-(2-methyl-5-oxopyrrolidin-1-yl)pyrimidin-5-yl)pyridazin-3(2H)-one]: over 5.00; `CCCOc1ccc(-c2ccc(=O)n(Cc3ccc(Cl)cc3)n2)cc1` [Compound 218, 2-(4-chlorobenzyl)-6-(4-propoxyphenyl)pyridazin-3(2H)-one]: over 5.00; `COc1ccc(-c2ccc(=O)n(Cc3ccc(Cl)cc3)n2)cc1` [Compound 212, 2-(4-chlorobenzyl)-6-(4-methoxyphenyl)pyridazin-3(2H)-one]: over 5.00.
The figure for `COc1ccc(-c2ccc(=O)n(Cc3ccccc3)n2)cc1` [Compound 211, 2-benzyl-6-(4-methoxyphenyl)pyridazin-3(2H)-one] is over 5.00; for `O=c1ccc(-c2ccc(OC(F)F)nc2)nn1Cc1ccc(F)c(Cl)c1` [Compound 20, 2-(3-chloro-4-fluorobenzyl)-6-(6-(difluoromethoxy)pyridin-3-yl)pyridazin-3(2H)-one] it is over 5.00.
The figure for `O=c1ccc(-c2cnc(OCC(F)(F)F)nc2)nn1Cc1ccc(F)c(F)c1` [Compound 42, 2-(3,4-difluorobenzyl)-6-(2-(2,2,2 trifluoroethoxy)pyrimidin-5-yl)pyridazin-3(2H)-one] is over 5.00.
Turning to `O=c1ccc(-c2cnc(NCC(F)(F)F)nc2)nn1Cc1ccc(Cl)cc1` [Compound 6, 2-(4-chlorobenzyl)-6-(2-((2,2,2-trifluoroethyl)amino)pyrimidin-5-yl)pyridazin-3(2H)-one], the negative logarithm of the IC50 (pIC50) was over 5.00.
`O=c1ccc(-c2cnc(OC(F)F)nc2)nn1Cc1ccc(Cl)cc1` [Compound 10, 2-(4-chlorobenzyl)-6-(2-(difluoromethoxy)pyrimidin-5-yl)pyridazin-3(2H)-one] showed a negative logarithm of the IC50 (pIC50) of over 5.00.
The figure for `COc1ccc(Cn2nc(-c3ccc(F)cc3)ccc2=O)cc1` [Compound 240, 6-(4-fluorophenyl)-2-(4-methoxybenzyl)pyridazin-3(2H)-one] is 4.00 to 5.00; for `O=c1ccc(-c2cnc(N3CC(OC(F)(F)F)C3)nc2)nn1Cc1ccc(Cl)cc1` [Compound 18, 2-(4-chlorobenzyl)-6-(2-(3-(trifluoromethoxy)azetidin-1-yl)pyrimidin-5-yl)pyridazin-3(2H)-one] it is over 5.00.
The compound `O=c1ccc(-c2ccc(F)cc2)nn1Cc1cccc(F)c1` [Compound 242, 2-(3-fluorobenzyl)-6-(4-fluorophenyl)pyridazin-3(2H)-one] gave a pIC50 of over 5.00.
Next, `O=c1ccc(-c2ccc(Br)cc2)nn1Cc1ccccc1` [Compound 239, 2-benzyl-6-(4-bromophenyl)pyridazin-3(2H)-one]: over 5.00; `CNc1ccc(-c2ccc(=O)n(Cc3ccc(Cl)cc3)n2)cc1` [Compound 123, 2-(4-chlorobenzyl)-6-(4-(methylamino)phenyl)pyridazin-3(2H)-one]: over 5.00.
Next, `O=c1ccc(-c2ccc(Cl)cc2)nn1Cc1ccc(C(F)(F)F)cc1` [Compound 305, 6-(4-chlorophenyl)-2-(4-(trifluoromethyl)benzyl)pyridazin-3(2H)-one]: under 4.00.
Take `O=c1ccc(-c2cnc(OCC(F)(F)F)nc2)nn1Cc1ccccc1` [Compound 31, 2-benzyl-6-(2-(2,2,2-trifluoroethoxy)pyrimidin-5-yl)pyridazin-3(2H)-one]: the pIC50 was over 5.00.
As for `O=c1ccc(-c2ccc(OC(F)F)nc2)nn1Cc1ccc(Cl)c(F)c1` [Compound 15, 2-(4-chloro-3-fluorobenzyl)-6-(6-(difluoromethoxy)pyridin-3-yl)pyridazin-3(2H)-one], the negative-log IC50 (pIC50) was over 5.00.
Next, `O=c1ccc(-c2ccc(Cl)cc2)nn1Cc1ccccc1Cl` [Compound 310, 2-(2-chlorobenzyl)-6-(4-chlorophenyl)pyridazin-3(2H)-one]: over 5.00; `O=c1ccc(-c2cnc(OCCOC(F)F)nc2)nn1Cc1ccc(Cl)cc1` [Compound 1, 2-(4-chlorobenzyl)-6-(2-(2-(difluoromethoxy)ethoxy)pyrimidin-5-yl)pyridazin-3(2H)-one]: over 5.00; `Cc1cccc(Cn2nc(-c3ccc(Cl)cc3)ccc2=O)c1` [Compound 314, 6-(4-chlorophenyl)-2-(3-methylbenzyl)pyridazin-3(2H)-one]: over 5.00.
Next, `O=c1ccc(-c2ccc(OC(F)F)cc2)nn1Cc1ccc(Cl)cc1` [Compound 103, 2-(4-chlorobenzyl)-6-(4-(difluoromethoxy)phenyl)pyridazin-3(2H)-one]: over 5.00.
